According to patent publication US9067892B2, “Spiroheterocyclic N-oxypiperidines as pesticides” (Syngenta Crop Protection, Inc., priority 2008, dated 2015):
Where two headings read alike, the source gives them in different places.

Key:
[1] = system: Tetranychus urticae (two-spotted spider mite); assay: Example B4: Tetranychus urticae, mixed population, feeding/residual contact activity, preventive; format: in vivo; details: foliar, 192 h, bean leaf discs sprayed, 8 days, egg, larval and adult mortality
Excerpt: Activity Against Tetranychus urticae (Two-Spotted Spider Mite) (Mixed Population, Feeding/Residual Contact Activity, Preventive) Bean leaf discs on agar in 24-well microtiter plates are sprayed with test solutions. […] 8 days later, discs are checked for egg mortality, larval mortality, and adult mortality.

[2] = system: Myzus persicae (green peach aphid); assay: Example B16: Myzus persicae on pepper plants, feeding/residual contact activity; format: in vivo; details: 144 h, infested pepper plants sprayed, 6 days after treatment, mortality, read-out: activity against Myzus persicae
[3] = system: Myzus persicae (green peach aphid); assay: Example B1: Myzus persicae, mixed population, feeding/residual contact activity, preventive; details: foliar, 144 h, read-out: activity
[4] = system: Myzus persicae (green peach aphid); assay: Example B13: drench activity against Myzus persicae; format: in vivo; details: 168 h, pea seedlings in field soil, 7 days after infestation, mortality
Experimental: Drench Activity Against Myzus persicae (Green Peach Aphid) Pea seedlings cultivated in field soil are treated as drench application and infested with a mixed population of M. persicae. 7 days after infestation, samples are checked for mortality.

[5] = system: Aphis craccivora (cowpea aphid); assay: Example B10: Aphis craccivora, mixed population, systemic/feeding; format: in vivo; details: 144 h, roots of infested pea seedlings in test solution, 6 days, mortality
Excerpt: 6 days later, samples are checked for mortality.

[6] = system: Thrips Tabaci (onion thrips); assay: Example B3: Thrips tabaci, mixed population, feeding/residual contact activity, preventive; format: in vivo; details: foliar, 144 h, sunflower leaf discs sprayed, 6 days incubation, mortality
[7] = system: Nilaparvata lugens (brown rice planthopper); assay: Example B8: Nilaparvata lugens, larvicide, feeding/contact; format: in vivo; details: rice seedlings sprayed, N3 nymphs, 6-12 days after treatment
Experimental: Activity Against Nilaparvata lugens (Brown Rice Planthopper) (Larvicide, Feeding/Contact) Rice seedlings are treated with the diluted test solutions in a spray chamber. After drying, they are infested with 20 N3 nymphs (2 replicates). 6-12 days after the treatment samples are checked for mortality, growth regulation, and effects on the F1 generation.

[8] = system: Myzus persicae (green peach aphid); assay: Example B2: Myzus persicae, mixed population, systemic/feeding activity, curative; details: 144 h, read-out: activity
[9] = system: Aphis craccivora (cowpea aphid); assay: Example B11: translaminar activity against Aphis craccivora; format: in vivo; details: 120 h, French bean leaves, aphids on lower side, upper side painted, 5 days, mortality
Experimental: Translaminar Activity Against Aphis craccivora (Cowpea Aphid) French bean leaves (Phaseolus vulgaris) are infested with about 20 mixed age individuals on the lower leaf side using clip cages. 1 day after the infestation, the upper side of the leaves is treated with the test solution by painting. 5 days later, samples are checked for mortality.

[10] = system: Myzus persicae (green peach aphid); assay: Example B14: drench activity against Myzus persicae in field soil, persistence, comparison with state of the art; format: in vivo; details: for mortality at 12.5 ppm: Myzus persicae, soil, pepper plants in field soil, read-out: Mortality (%) xx days after application (drench, systemic action, persistence)
Experimental: (§1) Six weeks old pepper plants cultivated in field soil are treated as drench application at various rates (mg a.i./liter soil). The same day, plants are infested with a mixed population of M. persicae and incubated in the greenhouse under optimal greenhouse conditions. Samples are assessed 7 days after infestation on mortality. Treated plants are re-infested 7, 14, 21 and 28 days after application. Evaluation is always done 7 days after infestation. Plants are also checked for damage (phytotoxicity), visual assessment being made using a 0-100% rating scale (100%=total damage to plant; 0%=no damage to plant).

pepper plants = details: in vivo
Experimental: as §1

[11] = system: Aphis craccivora (cowpea aphid); assay: Example B15: Aphis craccivora, mixed population, adjuvant effect, curative; format: in vivo; details: for Abbott's efficacy (%) against Aphis craccivora: 3 ppm, formulated as EC050, adjuvant 0.1% (v/v) where named, broad bean plants, 7 days after treatment
Experimental: One day after infestation, plants are treated with diluted test solutions of the compound formulated as EC050 in a spray chamber (4 replicates). […] Efficacy was calculated with the aid of Abbott's formula.

[12] = 0 days after application (infestation day; evaluated 7 days after infestation)
[13] = 14 days after application (re-infestation; evaluated 7 days after infestation)
[14] = 21 days after application (re-infestation; evaluated 7 days after infestation)
[15] = 28 days after application (re-infestation; evaluated 7 days after infestation)
[16] = 168 h, 7 days after application (re-infestation; evaluated 7 days after infestation)

Row | Structure (SMILES) | pest or weed control at 400 ppm [1] | pest or weed control at 200 ppm [2] | pest or weed control at 400 ppm [3] | pest or weed control at 25 ppm [4] | pest or weed control at 400 ppm [5] | pest or weed control at 400 ppm [6] | pest or weed control at 400 ppm [7] | pest or weed control at 400 ppm [8] | pest or weed control at 400 ppm [9] | mortality at 12.5 ppm [10, 12] | mortality at 12.5 ppm [10, 13] | mortality at 12.5 ppm [10, 14] | mortality at 12.5 ppm [10, 15] | mortality at 12.5 ppm [10, 16] | plant compatibility on pepper plants (in words) (pepper plants) | Abbott's efficacy (%) against Aphis craccivora ([11]; Table B15A) | Abbott's efficacy (%) against Aphis craccivora ([11]; Table B15B) | effect of adjuvants on insecticidal activity (in words) ([11]; summary of Tables B15A and B15B) | insecticidal action on Myzus persicae (in words) ([10]; summary of Table B14, drench)
1 | CON1CCC2(CC1)C(O)=C(c1c(C)cc(C)cc1C)C(=O)N2C [P2.2, 4-hydroxy-8-methoxy-1-methyl-3-(2,4,6-trimethyl-phenyl)-1,8-diaza-spiro[4.5]dec-3-en-2-one] | > 80% | ≥ 80% | > 80% | > 80% | > 80% | > 80% | > 80% | > 80% | > 80% | – | – | – | – | – | – | – | – | – | –
2 | CCOC(=O)OC1=C(c2c(C)cc(C)cc2C)C(=O)NC12CCN(OC)CC2 [A18, reference compound] | – | – | – | – | – | – | – | – | – | 100% | 98% | 95% | 95% | 100% | damages these to an untolerable high extend | – | – | – | –
3 | CCOC(=O)OC1=C(c2c(C)cc(C)cc2C)C(=O)N(COCCOC)C12CCN(OC)CC2 [P1.18] | > 80% | – | > 80% | > 80% | > 80% | > 80% | > 80% | > 80% | > 80% | – | – | – | – | – | – | – | – | – | –
4 | COCN1C(=O)C(c2c(C)cc(C)cc2C)=C(O)C12CCN(OC)CC2 [P2.6] | > 80% | ≥ 80% | > 80% | > 80% | > 80% | > 80% | > 80% | > 80% | > 80% | – | – | – | – | – | – | – | – | – | –
5 | COCCOCN1C(=O)C(c2c(C)cc(C)cc2C)=C(O)C12CCN(OC)CC2 [P2.19] | > 80% | – | > 80% | > 80% | > 80% | > 80% | > 80% | > 80% | > 80% | – | – | – | – | – | – | – | – | – | –
6 | CCOC(=O)OC1=C(c2c(C)cc(C)cc2C)C(=O)N(C)C12CCN(OC)CC2 [P1.2, Carbonic acid ethyl ester 8-methoxy-1-methyl-2-oxo-3-(2,4,6-trimethyl-phenyl)-1,8-diaza-spiro[4.5]dec-3-en-4-yl ester] | > 80% | ≥ 80% | > 80% | > 80% | > 80% | > 80% | > 80% | > 80% | > 80% | 98% | 98% | 100% | 98% | 98% | no damage at all | 54% | 25% | enhance the insecticidal activity of compound P1.2 significantly | very similar to the action of the compound of the state of the art
7 | CCOC(=O)OC1=C(c2c(C)cc(C)cc2C)C(=O)N(COC)C12CCN(OC)CC2 [P1.3] | > 80% | – | > 80% | > 80% | > 80% | > 80% | > 80% | > 80% | > 80% | – | – | – | – | – | – | – | – | – | –
